Test results: US6919379B2, “Compounds useful in reflux disease” (AstraZeneca AB, priority 2001, dated 2005)

## NC[C@@H](F)CS(=O)O
  melting point: 136 to 138 °C

## NC[C@H](O)CS(=O)O [Example 1, (2S)-(3-Amino-2-hydroxypropyl)sulphinic acid]
  melting point: 206 to 208 °C

## NC[C@@H](O)CS(=O)O [Example 2, (2R)-(3-Amino-2-hydroxypropyl)sulphinic acid]
  melting point: 210 °C
